# Experimental data published in US9005575B2, “Arg-Gly-Asp-conjugated alpha-melanocyte stimulating hormone hybrid peptide for use in diagnosing and treating melanoma, including metastatic melanoma and methods related to same” (STC.UNM, priority 2009, dated 2015).
# Where two headings read alike, the source gives them in different places. Positions of bridges follow the written chain, without caps; N, C: chain ends. Non-standard residues stand in square brackets, D forms with d. Residues, ends and D or L forms follow the SMILES beside them.
# Test: Biodistribution in B16/F1 melanoma-bearing C57 mice
# Assay type: in vivo
# Conditions: female, C57, mouse, iv, total radioactivity; for tissue uptake at 2 h / tissue uptake dose at 2 h: 2 h post-injection
# Experimental: All the animal studies were conducted in compliance with Institutional Animal Care and Use Committee approval. The pharmacokinetics of ^99mTc-RGD-Lys-(Arg^11)CCMSH was determined in B16/F1 melanoma-bearing C57 female mice (Harlan, Indianapolis, Ind.). C57 mice were subcutaneously inoculated on the right flank with 1×10^6 B16/F1 cells. The weight of tumors reached approximately 0.2 g 10 days post cell inoculation. Each melanoma-bearing mouse was injected with 0.037 MBq of ^99mTc-RGD-Lys-(Arg^11)CCMSH via the tail vein. Groups of 5 mice were sacrificed at 0.5, 2, 4 and 24 h post-injection, and tumors and organs of interest were harvested, weighed and counted. Blood values were taken as 6.5% of the whole-body weight. The MC1 receptor specificity of the tumor uptake was determined at 2 h post-injection by co-injecting ^99mTc-RGD-Lys-(Arg^11)CCMSH with 10 μg (6.1 nmol) of unlabeled NDP-MSH, a linear α-MSH peptide analogue with picomolar affinity for the MC1 receptors present on murine melanoma cells. The co-injection of 3.5 μg (6.1 nmol) of RGD peptide was performed to determine the αvβ3 integrin specificity of the tumor uptake 2 h post-injection. Statistical analysis was performed using the Student's t-test for unpaired data.
# All the animal studies were conducted in compliance with Institutional Animal Care and Use Committee approval. The pharmacokinetics of ^99mTc-RGD-Arg-(Arg^11)CCMSH was determined in B16/F1 melanoma-bearing C57 female mice (Harlan, Indianapolis, Ind.). C57 mice were subcutaneously inoculated on the right flank with 1×10^6 B16/F1 cells. The weight of tumors reached approximately 0.2 g 10 days post cell inoculation. Each melanoma-bearing mouse was injected with 0.037 MBq of ^99mTc-RGD-Arg-(Arg^11)CCMSH via the tail vein. Groups of 5 mice were sacrificed at 0.5, 2, 4 and 24 h post-injection, and tumors and organs of interest were harvested, weighed and counted. Blood values were taken as 6.5% of the whole-body weight. The MC1 receptor specificity of the tumor uptake was determined at 2 h post-injection by co-injecting ^99mTc-RGD-Arg-(Arg^11)CCMSH with 10 μg (6.1 nmol) of unlabeled NDP-MSH. The co-injection of 3.5 μg (6.1 nmol) of RGD peptide was performed to determine the αvβ3 integrin specificity of the tumor uptake at 2 h post-injection.
smiles,measurement,setting,value
"CC(C)[C@H](NC(=O)[C@@H]1CCCN1C(=O)[C@H](CCCNC(=N)N)NC(=O)[C@H](CS)NC(=O)[C@H](Cc1c[nH]c2ccccc12)NC(=O)[C@H](CCCNC(=N)N)NC(=O)[C@@H](Cc1ccccc1)NC(=O)[C@H](Cc1c[nH]cn1)NC(=O)[C@H](CCC(=O)O)NC(=O)[C@H](CS)NC(=O)[C@H](CS)NC(=O)[C@H](CCCNC(=N)N)NC(=O)[C@@H]1CC(=O)N[C@@H](CCCNC(=N)N)C(=O)NCC(=O)N[C@@H](CC(=O)O)C(=O)N[C@H](Cc2ccc(O)cc2)C(=O)N1)C(N)=O [^99mTc-RGD-Arg-(Arg^11)CCMSH, metal not drawn] (RGD[dY]DRCCEH[dF]RWCRPV-NH2; lactam N-5)",tissue uptake at 0.5 h,"blood, 0.037 MBq, 0.5 h post-injection, read-out: Blood, Percentage Injected Dose/gram",3.64 ± 0.69 %ID/g
same,tissue uptake at 2 h,"blood, 0.037 MBq, read-out: Blood, Percentage Injected Dose/gram",0.55 ± 0.47 %ID/g
same,tissue uptake at 4 h,"blood, 0.037 MBq, 4 h post-injection, read-out: Blood, Percentage Injected Dose/gram",0.71 ± 0.41 %ID/g
same,tissue uptake at 24 h,"blood, 0.037 MBq, 24 h post-injection, read-out: Blood, Percentage Injected Dose/gram",0.24 ± 0.14 %ID/g
same,tissue uptake at 2 h,"blood, NDP blockade (10 μg NDP-MSH co-injected), read-out: Blood, Percentage Injected Dose/gram",0.47 ± 0.29 %ID/g
same,tissue uptake at 2 h,"blood, RGD blockade (3.5 μg RGD co-injected), read-out: Blood, Percentage Injected Dose/gram",0.04 ± 0.01 %ID/g
same,tissue uptake at 0.5 h,"bone, 0.037 MBq, 0.5 h post-injection, read-out: Bone, Percentage Injected Dose/gram",2.01 ± 0.19 %ID/g
same,tissue uptake at 2 h,"bone, 0.037 MBq, read-out: Bone, Percentage Injected Dose/gram",0.57 ± 0.15 %ID/g
same,tissue uptake at 4 h,"bone, 0.037 MBq, 4 h post-injection, read-out: Bone, Percentage Injected Dose/gram",0.97 ± 0.22 %ID/g
same,tissue uptake at 24 h,"bone, 0.037 MBq, 24 h post-injection, read-out: Bone, Percentage Injected Dose/gram",0.9 ± 0.39 %ID/g
same,tissue uptake at 2 h,"bone, NDP blockade (10 μg NDP-MSH co-injected), read-out: Bone, Percentage Injected Dose/gram",0.98 ± 0.39 %ID/g
same,tissue uptake at 2 h,"bone, RGD blockade (3.5 μg RGD co-injected), read-out: Bone, Percentage Injected Dose/gram",0.52 ± 0.42 %ID/g
same,tissue uptake at 0.5 h,"brain, 0.037 MBq, 0.5 h post-injection, read-out: Brain, Percentage Injected Dose/gram",0.16 ± 0.02 %ID/g
same,tissue uptake at 2 h,"brain, 0.037 MBq, read-out: Brain, Percentage Injected Dose/gram",0.06 ± 0.02 %ID/g
same,tissue uptake at 4 h,"brain, 0.037 MBq, 4 h post-injection, read-out: Brain, Percentage Injected Dose/gram",0.04 ± 0.03 %ID/g
same,tissue uptake at 24 h,"brain, 0.037 MBq, 24 h post-injection, read-out: Brain, Percentage Injected Dose/gram",0.06 ± 0.02 %ID/g
same,tissue uptake at 2 h,"brain, NDP blockade (10 μg NDP-MSH co-injected), read-out: Brain, Percentage Injected Dose/gram",0.06 ± 0.01 %ID/g
same,tissue uptake at 2 h,"brain, RGD blockade (3.5 μg RGD co-injected), read-out: Brain, Percentage Injected Dose/gram",0.04 ± 0.01 %ID/g
same,tissue uptake at 0.5 h,"heart, 0.037 MBq, 0.5 h post-injection, read-out: Heart, Percentage Injected Dose/gram",2.36 ± 0.37 %ID/g
same,tissue uptake at 2 h,"heart, 0.037 MBq, read-out: Heart, Percentage Injected Dose/gram",0.73 ± 0.27 %ID/g
same,tissue uptake at 4 h,"heart, 0.037 MBq, 4 h post-injection, read-out: Heart, Percentage Injected Dose/gram",0.53 ± 0.19 %ID/g
same,tissue uptake at 24 h,"heart, 0.037 MBq, 24 h post-injection, read-out: Heart, Percentage Injected Dose/gram",0.34 ± 0.07 %ID/g
same,tissue uptake at 2 h,"heart, with RGD peptide, 3.5 μg (6.1 nmol) co-injected, RGD blockade (3.5 μg RGD co-injected), read-out: Heart, Percentage Injected Dose/gram",0.55 ± 0.22 %ID/g
same,tissue uptake at 2 h,"heart, with unlabeled NDP-MSH, 10 μg (6.1 nmol) co-injected, NDP blockade (10 μg NDP-MSH co-injected), read-out: Heart, Percentage Injected Dose/gram",0.61 ± 0.21 %ID/g
same,tissue uptake dose at 0.5 h,"intestines, 0.037 MBq, 0.5 h post-injection, read-out: Intestines, Percentage Injected Dose",3.19 ± 0.22 %ID
same,tissue uptake dose at 2 h,"intestines, 0.037 MBq, read-out: Intestines, Percentage Injected Dose",2.57 ± 0.58 %ID
same,tissue uptake dose at 4 h,"intestines, 0.037 MBq, 4 h post-injection, read-out: Intestines, Percentage Injected Dose",2.62 ± 0.57 %ID
same,tissue uptake dose at 24 h,"intestines, 0.037 MBq, 24 h post-injection, read-out: Intestines, Percentage Injected Dose",1.01 ± 0.11 %ID
same,tissue uptake dose at 2 h,"intestines, NDP blockade (10 μg NDP-MSH co-injected), read-out: Intestines, Percentage Injected Dose",2.34 ± 0.52 %ID
same,tissue uptake dose at 2 h,"intestines, RGD blockade (3.5 μg RGD co-injected), read-out: Intestines, Percentage Injected Dose",1.79 ± 0.58 %ID
same,tissue uptake at 0.5 h,"kidneys, 0.037 MBq, 0.5 h post-injection, read-out: Kidneys, Percentage Injected Dose/gram",37.2 ± 4.72 %ID/g
same,tissue uptake at 2 h,"kidneys, 0.037 MBq, read-out: Kidneys, Percentage Injected Dose/gram",43 ± 8.14 %ID/g
same,tissue uptake at 4 h,"kidneys, 0.037 MBq, 4 h post-injection, read-out: Kidneys, Percentage Injected Dose/gram",36.6 ± 11.7 %ID/g
same,tissue uptake at 24 h,"kidneys, 0.037 MBq, 24 h post-injection, read-out: Kidneys, Percentage Injected Dose/gram",16.2 ± 4.01 %ID/g
same,tissue uptake at 2 h,"kidneys, NDP blockade (10 μg NDP-MSH co-injected), read-out: Kidneys, Percentage Injected Dose/gram",34.8 ± 8.46 %ID/g
same,tissue uptake at 2 h,"kidneys, RGD blockade (3.5 μg RGD co-injected), read-out: Kidneys, Percentage Injected Dose/gram",38.5 ± 7.45 %ID/g
same,tissue uptake at 0.5 h,"liver, 0.037 MBq, 0.5 h post-injection, read-out: Liver, Percentage Injected Dose/gram",4.21 ± 1.04 %ID/g
same,tissue uptake at 2 h,"liver, 0.037 MBq, read-out: Liver, Percentage Injected Dose/gram",3.58 ± 1.08 %ID/g
same,tissue uptake at 4 h,"liver, 0.037 MBq, 4 h post-injection, read-out: Liver, Percentage Injected Dose/gram",4.93 ± 0.38 %ID/g
same,tissue uptake at 24 h,"liver, 0.037 MBq, 24 h post-injection, read-out: Liver, Percentage Injected Dose/gram",1.89 ± 0.36 %ID/g
same,tissue uptake at 2 h,"liver, NDP blockade (10 μg NDP-MSH co-injected), read-out: Liver, Percentage Injected Dose/gram",2.87 ± 0.34 %ID/g
same,tissue uptake at 2 h,"liver, RGD blockade (3.5 μg RGD co-injected), read-out: Liver, Percentage Injected Dose/gram",2.3 ± 0.22 %ID/g
same,tissue uptake at 0.5 h,"lung, 0.037 MBq, 0.5 h post-injection, read-out: Lung, Percentage Injected Dose/gram",7.55 ± 1.29 %ID/g
same,tissue uptake at 2 h,"lung, 0.037 MBq, read-out: Lung, Percentage Injected Dose/gram",2.05 ± 0.52 %ID/g
same,tissue uptake at 4 h,"lung, 0.037 MBq, 4 h post-injection, read-out: Lung, Percentage Injected Dose/gram",1.01 ± 0.41 %ID/g
same,tissue uptake at 24 h,"lung, 0.037 MBq, 24 h post-injection, read-out: Lung, Percentage Injected Dose/gram",0.76 ± 0.14 %ID/g
same,tissue uptake at 2 h,"lung, NDP blockade (10 μg NDP-MSH co-injected), read-out: Lung, Percentage Injected Dose/gram",1.42 ± 0.31 %ID/g
same,tissue uptake at 2 h,"lung, RGD blockade (3.5 μg RGD co-injected), read-out: Lung, Percentage Injected Dose/gram",1.21 ± 0.5 %ID/g
same,tissue uptake at 0.5 h,"muscle, 0.037 MBq, 0.5 h post-injection, read-out: Muscle, Percentage Injected Dose/gram",1.79 ± 1.14 %ID/g
same,tissue uptake at 2 h,"muscle, 0.037 MBq, read-out: Muscle, Percentage Injected Dose/gram",0.21 ± 0.12 %ID/g
same,tissue uptake at 4 h,"muscle, 0.037 MBq, 4 h post-injection, read-out: Muscle, Percentage Injected Dose/gram",0.32 ± 0.25 %ID/g
same,tissue uptake at 24 h,"muscle, 0.037 MBq, 24 h post-injection, read-out: Muscle, Percentage Injected Dose/gram",0.25 ± 0.05 %ID/g
same,tissue uptake at 2 h,"muscle, NDP blockade (10 μg NDP-MSH co-injected), read-out: Muscle, Percentage Injected Dose/gram",0.5 ± 0.12 %ID/g
same,tissue uptake at 2 h,"muscle, RGD blockade (3.5 μg RGD co-injected), read-out: Muscle, Percentage Injected Dose/gram",0.28 ± 0.2 %ID/g
same,tissue uptake,"normal organs except kidneys, 0.037 MBq, after 2 h post-injection, read-out: Normal organ uptakes except for the kidneys",< 3.6 %ID/g
same,tissue uptake at 0.5 h,"pancreas, 0.037 MBq, 0.5 h post-injection, read-out: Pancreas, Percentage Injected Dose/gram",1.02 ± 0.36 %ID/g
same,tissue uptake at 2 h,"pancreas, 0.037 MBq, read-out: Pancreas, Percentage Injected Dose/gram",0.36 ± 0.2 %ID/g
same,tissue uptake at 4 h,"pancreas, 0.037 MBq, 4 h post-injection, read-out: Pancreas, Percentage Injected Dose/gram",0.37 ± 0.12 %ID/g
same,tissue uptake at 24 h,"pancreas, 0.037 MBq, 24 h post-injection, read-out: Pancreas, Percentage Injected Dose/gram",0.19 ± 0.09 %ID/g
same,tissue uptake at 2 h,"pancreas, NDP blockade (10 μg NDP-MSH co-injected), read-out: Pancreas, Percentage Injected Dose/gram",0.37 ± 0.22 %ID/g
same,tissue uptake at 2 h,"pancreas, RGD blockade (3.5 μg RGD co-injected), read-out: Pancreas, Percentage Injected Dose/gram",0.32 ± 0.17 %ID/g
same,tissue uptake at 0.5 h,"skin, 0.037 MBq, 0.5 h post-injection, read-out: Skin, Percentage Injected Dose/gram",4.55 ± 1.01 %ID/g
